Laboratory results as given in ChEMBL document CHEMBL1148929, “Phytochemical studies on Stemona burkillii prain: two new dihydrostemofoline alkaloids” (J Nat Prod, 2004).

Legend:
[1] = system: Cladosporium cladosporioides; assay: Antifungal activity against Cladosporium cladosporioides assessed as inhibition of spore germination; format: functional, organism-based
Artemia = assay: Toxicity to brine shrimp; format: organism-based; conditions: in vivo

Row | SMILES | EC50 [1] | LC50 (Artemia)
1 | CC[C@H](O)C[C@@]12[C@@H]3C[C@H]4[C@H]5[C@H](C)/C(=C6/OC(=O)C(C)=C6OC)O[C@]5(O3)[C@H]1CCN42 [2'-HYDROXYSTEMOFOLINE] | > 219 ppm | > 33 ppm
2 | CCCC[C@@]12C3CCN1[C@H]1C[C@H]2O[C@@]32O/C(=C3\OC(=O)C(C)=C3OC)[C@@H](C)[C@H]12 [STEMOFOLINE] | > 219 ppm | > 33 ppm
